How the values were obtained:
Assay in all cases: relative viability (nuclei count vs DMSO), 5 days (fraction); higher = more cells survive
Pazopanib + AZD7762 = compound: Cc1ccc(Nc2nccc(N(C)c3ccc4c(C)n(C)nc4c3)n2)cc1S(N)(=O)=O [Pazopanib] + NC(=O)Nc1cc(-c2cccc(F)c2)sc1C(=O)N[C@H]1CCCNC1 [AZD7762] (partner 0.2 µM)
Procedure, shortened: (§1)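 The day after seeding in 1536-well plates, lung cancer cell lines were treated by pin tool with a single drug, or with a fixed anchor-drug dose together with five library-drug doses (not always all listed) in √10 steps. After 5 days, a combined fix-and-stain solution (final 0.05% Triton X-100, 1% formaldehyde, 1 ug/ml Hoechst) was added. Nuclei counted on 4× images gave relative viability as treated counts over vehicle counts, reported as the median of duplicate plates.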

Ponatinib + Pictilisib = compound: Cc1ccc(C(=O)Nc2ccc(CN3CCN(C)CC3)c(C(F)(F)F)c2)cc1C#Cc1cnc2cccnn12 [Ponatinib] + CS(=O)(=O)N1CCN(Cc2cc3nc(-c4cccc5[nH]ncc45)nc(N4CCOCC4)c3s2)CC1 [Pictilisib] (partner 1 µM)
Procedure, shortened: as §1

Ponatinib + Luminespib = compound: Cc1ccc(C(=O)Nc2ccc(CN3CCN(C)CC3)c(C(F)(F)F)c2)cc1C#Cc1cnc2cccnn12 [Ponatinib] + CCNC(=O)c1noc(-c2cc(C(C)C)c(O)cc2O)c1-c1ccc(CN2CCOCC2)cc1 [Luminespib] (partner 0.01 µM)
Procedure, shortened: as §1

Pazopanib + OSI-027 = compound: Cc1ccc(Nc2nccc(N(C)c3ccc4c(C)n(C)nc4c3)n2)cc1S(N)(=O)=O [Pazopanib] + COc1cccc2cc(-c3nc([C@H]4CC[C@H](C(=O)O)CC4)n4ncnc(N)c34)[nH]c12 [OSI-027] (partner 0.5 µM)
Procedure, shortened: as §1

| Cell Line | relative viability (Pazopanib + AZD7762; first compound 0.01 µM) | relative viability (Pazopanib + AZD7762; first compound 0.03162 µM) | relative viability (Pazopanib + AZD7762; first compound 0.1 µM) | relative viability (Pazopanib + AZD7762; first compound 0.3162 µM) | relative viability (Pazopanib + AZD7762; first compound 1 µM) | relative viability (Ponatinib + Pictilisib; first compound 0.002 µM) | relative viability (Ponatinib + Pictilisib; first compound 0.006325 µM) | relative viability (Ponatinib + Pictilisib; first compound 0.06325 µM) | relative viability (Ponatinib + Pictilisib; first compound 0.2 µM) | relative viability (Ponatinib + Luminespib; first compound 0.002 µM) | relative viability (Ponatinib + Luminespib; first compound 0.006325 µM) | relative viability (Ponatinib + Luminespib; first compound 0.06325 µM) | relative viability (Ponatinib + Luminespib; first compound 0.2 µM) | relative viability (Pazopanib + OSI-027; first compound 0.01 µM) | relative viability (Pazopanib + OSI-027; first compound 0.03162 µM) | relative viability (Pazopanib + OSI-027; first compound 0.1 µM) | relative viability (Pazopanib + OSI-027; first compound 0.3162 µM) | relative viability (Pazopanib + OSI-027; first compound 1 µM) |
| --- | --- | --- | --- | --- | --- | --- | --- | --- | --- | --- | --- | --- | --- | --- | --- | --- | --- | --- |
| 201T | 0.534 | 0.511 | 0.667 | 0.685 | 0.615 | 0.649 | 0.685 | 0.801 | 0.725 | 1.1 | 1.07 | 1.08 | 0.966 | 0.83 | 0.575 | 0.799 | 0.742 | 0.747 |
| A549 | – | – | – | – | – | 0.527 | 0.645 | 0.608 | 0.401 | – | – | – | – | – | – | – | – | – |
| COR-L23 | – | – | – | – | – | 0.768 | 0.753 | 1.04 | 0.703 | 0.658 | 0.618 | 0.669 | 0.513 | 0.91 | 0.838 | 0.872 | 0.832 | 0.913 |
| COR-L 105 | – | – | – | – | – | 0.424 | 0.379 | 0.443 | 0.567 | 0.651 | 0.931 | 0.845 | 0.895 | 0.636 | 0.665 | 0.635 | 0.75 | 0.857 |
| Calu-6 | – | – | – | – | – | 0.92 | 0.87 | 0.928 | 0.724 | – | – | – | – | – | – | – | – | – |
| EBC-1 | – | – | – | – | – | 0.372 | 0.428 | 0.327 | 0.283 | – | – | – | – | – | – | – | – | – |
| HCC-78 | – | 0.654 | 0.615 | 0.658 | 0.604 | 0.203 | 0.216 | 0.214 | 0.232 | – | – | – | – | 0.361 | 0.423 | 0.348 | 0.411 | 0.371 |
| HCC-366 | 0.321 | 0.202 | 0.314 | 0.276 | 0.238 | 0.149 | 0.101 | 0.146 | 0.275 | – | – | – | – | 0.807 | 0.992 | 0.823 | 0.975 | 0.945 |
| IA-LM | – | – | – | – | – | 0.428 | 0.386 | 0.572 | 0.442 | – | – | – | – | – | – | – | – | – |
| NCI-H520 | – | – | – | – | – | 0.253 | 0.248 | 0.259 | 0.249 | 0.207 | 0.209 | 0.19 | 0.223 | 0.271 | 0.268 | 0.259 | 0.301 | 0.262 |
| NCI-H522 | 0.679 | 0.667 | 1.09 | 1.03 | 0.857 | – | – | – | – | 1.17 | 1.3 | 1.18 | 1.09 | 0.705 | 0.662 | 0.705 | 0.636 | 0.775 |
| NCI-H661 | – | – | – | – | – | 0.404 | 0.406 | 0.389 | 0.482 | 0.916 | 0.903 | 0.898 | 0.927 | 0.669 | 0.784 | 0.745 | 0.689 | 0.735 |
| NCI-H1299 | – | – | – | – | – | 0.894 | 0.874 | 0.988 | 0.658 | – | – | – | – | – | – | – | – | – |
| NCI-H1563 | – | – | – | – | – | 0.546 | 0.601 | 0.586 | 0.599 | 0.48 | 0.535 | 0.595 | 0.476 | 0.716 | 0.802 | 0.788 | 0.802 | 0.734 |

From the supplement of paper PMC10307832
